The assay deals with ASK1 (Apoptosis Signal-Regulating Kinase 1) (Homo sapiens (Human), UniProt Q99683). The assay is described as follows: ASK1 (Apoptosis Signal-Regulating Kinase 1) TR-FRET Kinase Assay (Biochemical IC50). The settings on record: TR-FRET, biotin-MBP substrate, 20 min pre-incubation, ATP added as 300 μM solution. On the technique in general: In TR-FRET formats the signal depends on donor and acceptor labels being close together.
Sequence of ASK1 (Apoptosis Signal-Regulating Kinase 1) (Q99683 649-946): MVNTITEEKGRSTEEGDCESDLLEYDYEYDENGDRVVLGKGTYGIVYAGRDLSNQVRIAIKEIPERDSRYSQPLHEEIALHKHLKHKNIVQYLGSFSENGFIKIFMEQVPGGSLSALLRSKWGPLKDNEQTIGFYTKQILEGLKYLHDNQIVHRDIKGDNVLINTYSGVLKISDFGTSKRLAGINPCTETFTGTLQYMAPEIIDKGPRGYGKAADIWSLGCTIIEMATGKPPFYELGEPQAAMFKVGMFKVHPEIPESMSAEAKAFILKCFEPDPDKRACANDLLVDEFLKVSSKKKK
For `COC(=O)Nc1ccc(-c2ccnc(C(=O)Nc3cccc(-c4nncn4C4CC4)c3)c2)cn1` [Example 23, methyl 2′-(3-(4-cyclopropyl-4H-1,2,4-triazol-3-yl)phenylcarbamoyl)-3,4′-bipyridin-6-ylcarbamate], the IC50 worked out at 167 nM.

For `O=C(Nc1cccc(-c2nncn2C2CC2)c1)c1cc(-n2cncn2)ccn1` [Example 28, N-(3-(4-cyclopropyl-4H-1,2,4-triazol-3-yl)phenyl)-4-(1H-1,2,4-triazol-1-yl)picolinamide], the IC50 came out at 110 nM. The result for `O=C(Nc1cccc(-c2nncn2C2CC2)c1)c1cc(-c2cccnc2)c2ccccc2n1` [Example 80, N-(3-(4-cyclopropyl-4H-1,2,4-triazol-3-yl)phenyl)-4-(pyridin-3-yl)quinoline-2-carboxamide] reads 36 nM; that for `Cc1ncn(-c2ccnc(C(=O)Nc3cccc(-c4nncn4C4CC4)n3)c2)c1C` [Example 160, N-(6-(4-cyclopropyl-4H-1,2,4-triazol-3-yl)pyridin-2-yl)-4-(4,5-dimethyl-1H-imidazol-1-yl)picolinamide], 4 nM. The same measure for `O=C(Nc1cccc(-c2nncn2C2CC2)n1)c1cccc(-n2cc(C3CC3)nn2)c1` [Example 269, 3-(4-cyclopropyl-1H-1,2,3-triazol-1-yl)-N-(6-(4-cyclopropyl-4H-1,2,4-triazol-3-yl)pyridin-2-yl)benzamide]: 23 nM; for `O=C(Nc1cccc(-c2nncn2C2CC2)c1)c1cc(-c2cnc3c(c2)CNCC3)ccn1` [Example 154, N-(3-(4-cyclopropyl-4H-1,2,4-triazol-3-yl)phenyl)-4-(5,6,7,8-tetrahydro-1,6-naphthyridin-3-yl)picolinamide]: 34 nM; for `O=C(Nc1cccc(-c2nncn2C2CC2)c1)c1cc(-c2cnccn2)ccn1` [Example 87, N-(3-(4-cyclopropyl-4H-1,2,4-triazol-3-yl)phenyl)-4-(pyrazin-2-yl)picolinamide]: 69 nM.

For `C[C@@H](n1cnnc1-c1cccc(NC(=O)c2cc(-c3cccnc3)ccn2)c1)C(F)(F)F` [Example 62, (R)-N-(3-(4-(1,1,1-trifluoropropan-2-yl)-4H-1,2,4-triazol-3-yl)phenyl)-3,4′-bipyridine-2′-carboxamide], half-maximal inhibition (IC50) required 1240 nM. As to `O=C(Nc1cccc(-c2nncn2C2CC2)c1)c1cc(-n2cnc3ccccc32)ccn1` [Example 37, 4-(1H-benzo[d]imidazol-1-yl)-N-(3-(4-cyclopropyl-4H-1,2,4-triazol-3-yl)phenyl)picolinamide], the IC50 was 8 nM. The same measure for `O=C(Nc1cccc(-c2nncn2C2CC2)c1)c1cc(-c2ccc(-c3ccc(Cl)nc3)nc2)ccn1` [Example 70, 6-Chloro-[3,2′:5′,4′]terpyridine-2″-carboxylic acid [3-(4-cyclopropyl-4H-[1,2,4]triazol-3-yl)-phenyl]-amide]: 106 nM; for `O=C(Nc1cccc(-c2nncn2CC(F)(F)F)c1)c1cc(-c2cccnc2)ccn1` [Example 58, N-(3-(4-(2,2,2-trifluoroethyl)-4H-1,2,4-triazol-3-yl)phenyl)-3,4′-bipyridine-2′-carboxamide]: 290 nM; for `O=C(Nc1cccc(-c2nncn2C2CC2)c1)c1cc(-c2cnc3[nH]ccc3c2)ccn1` [Example 92, N-(3-(4-cyclopropyl-4H-1,2,4-triazol-3-yl)phenyl)-4-(1H-pyrrolo[2,3-b]pyridin-5-yl)picolinamide]: 13 nM.

`O=C(Nc1cccc(-c2nncn2C2CC2)n1)c1cc(-n2cnc(C(F)(F)C(F)(F)F)c2)ccn1` [Example 199, N-(6-(4-cyclopropyl-4H-1,2,4-triazol-3-yl)pyridin-2-yl)-4-(4-(perfluoroethyl)-1H-imidazol-1-yl)picolinamide] displayed a half-maximal inhibitory concentration (IC50) of 9 nM. The result for `O=C(Nc1cccc(-c2cncn2C2CC2)c1)c1cc(-c2cnc3ccccc3c2)ccn1` [Example 108, N-(3-(1-cyclopropyl-1H-imidazol-5-yl)phenyl)-4-(quinolin-3-yl)picolinamide] reads 41 nM; that for `O=C(Nc1cccc(-c2nncn2C2CC2)c1)c1cc(-c2ccc(CC3CC3)nc2)ccn1` [Example 268, N-(3-(4-cyclopropyl-4H-1,2,4-triazol-3-yl)phenyl)-6-(cyclopropylmethyl)-3,4′-bipyridine-2′-carboxamide], 13 nM; that for `Cc1ncc(-c2ccnc(C(=O)Nc3cccc(-c4nncn4C4CC4)c3)c2)n1C` [Example 73, N-(3-(4-cyclopropyl-4H-1,2,4-triazol-3-yl)phenyl)-4-(1,2-dimethyl-1H-imidazol-5-yl)picolinamide], 11 nM.

In turn, `Cc1cc(-c2ccc(C3CC3)nc2)cc(C(=O)Nc2cccc(-c3nncn3C3CC3)n2)n1` [Example 233, 6-cyclopropyl-N-(6-(4-cyclopropyl-4H-1,2,4-triazol-3-yl)pyridin-2-yl)-6′-methyl-3,4′-bipyridine-2′-carboxamide] gave an IC50 of 14 nM. The result for `Cn1c(-c2ccnc(C(=O)Nc3cccc(-c4nncn4C4CC4)c3)c2)cnc1-c1ccccc1` [Example 116, N-(3-(4-cyclopropyl-4H-1,2,4-triazol-3-yl)phenyl)-4-(1-methyl-2-phenyl-1H-imidazol-5-yl)picolinamide] reads 23 nM; that for `O=C(Nc1cccc(-c2nncn2C2CC2)c1)c1cc(-c2cccnc2)cc(C(F)(F)F)n1` [Example 124, N-(3-(4-cyclopropyl-4H-1,2,4-triazol-3-yl)phenyl)-6′-(trifluoromethyl)-3,4′-bipyridine-2′-carboxamide], 422 nM; that for `O=C(Nc1cccc(-c2nncn2C2CC2)c1)c1cc(-n2cnc(C(O)C(F)(F)F)c2)ccn1` (stereo not drawn) [Example 206, N-(3-(4-cyclopropyl-4H-1,2,4-triazol-3-yl)phenyl)-4-(4-(2,2,2-trifluoro-1-hydroxyethyl)-1H-imidazol-1-yl)picolinamide], 9 nM.

In turn, `O=C(Nc1cccc(-c2nncn2C2CC2)c1)c1cc(-c2cnc3cccnc3c2)ccn1` [Example 190, N-(3-(4-cyclopropyl-4H-1,2,4-triazol-3-yl)phenyl)-4-(1,5-naphthyridin-3-yl)picolinamide] returned an IC50 of 13 nM. For the molecule `Cc1ccc2c(-c3ccc(C4CC4)nc3)cc(C(=O)Nc3cccc(-c4nncn4C4CC4)n3)nc2c1C` [Example 236, N-(6-(4-cyclopropyl-4H-1,2,4-triazol-3-yl)pyridin-2-yl)-4-(6-cyclopropylpyridin-3-yl)-7,8-dimethylquinoline-2-carboxamide], the IC50 turned out to be 139 nM. The same measure for `Cc1ccc(C(=O)Nc2cccc(-c3nncn3C3CC3)n2)cc1-n1cnc(C2CC2)c1` [Example 200, 3-(4-cyclopropyl-1H-imidazol-1-yl)-N-(6-(4-cyclopropyl-4H-1,2,4-triazol-3-yl)pyridin-2-y1)-4-methylbenzamide]: 11 nM. The result for `CC(C)(C)NC(=O)c1cncc(-c2ccnc(C(=O)Nc3cccc(-c4nncn4C4CC4)c3)c2)c1` [Example 75, N5-tert-butyl-N2′-(3-(4-cyclopropyl-4H-1,2,4-triazol-3-yl)phenyl)-3,4′-bipyridirie-2′,5-dicarboxamide] reads 10 nM; that for `C[C@H](n1cnnc1-c1cccc(NC(=O)c2cc(-c3ccc(C4CC4)nc3)ccn2)c1)C(C)(C)C` [Example 242, (S)-6-cyclopropyl-N-(3-(4-(3,3-dimethylbutan-2-yl)-4H-1,2,4-triazol-3-yl)phenyl)-3,4′-bipyridine-2′-carboxamide], 1130 nM; that for `O=C(Nc1cccc(-c2nncn2C2CC2)c1)c1cc(-c2ccc(S(=O)(=O)NC3CC3)cc2)ccn1` [Example 96, N-(3-(4-cyclopropyl-4H-1,2,4-triazol-3-yl)phenyl)-4-(4-(N-cyclopropylsulfamoyl)phenyl)picolinamide], 13 nM.

In the case of `NC(=O)c1ccc(-c2ccnc(C(=O)Nc3cccc(-c4nncn4C4CC4)c3)c2)cn1` [Example 51, N2′-(3-(4-cyclopropyl-4H-1,2,4-triazol-3-yl)phenyl)-3,4′-bipyridine-2′,6-dicarboxamide], the IC50 was 8 nM. Compared with the last molecule, the IC50 is about 1.6-fold lower. `O=C(Nc1cccc(-c2cncn2C2CC2)n1)c1cc(-c2cnc3ccccc3c2)ccn1` [Example 126, N-(6-(1-cyclopropyl-1H-imidazol-5-yl)pyridin-2-yl)-4-(quinolin-3-yl)picolinamide] yielded an IC50 of 1040 nM. The result for `C[C@H](CO)n1cnnc1-c1cccc(NC(=O)c2cc(-c3cccnc3)ccn2)c1` [Example 19, (R)-N-(3-(4-(1-hydroxypropan-2-yl)-4H-1,2,4-triazol-3-yl)phenyl)-3,4′-bipyridine-2′-carboxamide] reads 9 nM; that for `Cc1c(C(=O)Nc2cccc(-c3nncn3C3CC3)n2)cccc1-n1cnc(C2CC2)c1` [Example 196, 3-(4-cyclopropyl-1H-imidazol-1-yl)-N-(6-(4-cyclopropyl-4H-1,2,4-triazol-3-yl)pyridin-2-yl)-2-methylbenzamide], 1260 nM. The same measure for `CNS(=O)(=O)c1ccc(-c2ccnc(C(=O)Nc3cccc(-c4nncn4C4CC4)c3)c2)cc1` [Example 98, N-(3-(4-cyclopropyl-4H-1,2,4-triazol-3-yl)phenyl)-4-(4-(N-methylsulfamoyl)phenyl)picolinamide]: 7 nM; for `CC(C)Oc1ccc(-c2ccnc(C(=O)Nc3cccc(-c4nncn4C4CC4)c3)c2)cn1` [Example 94, N-(3-(4-cyclopropyl-4H-1,2,4-triazol-3-yl)phenyl)-6-isopropoxy-3,4′-bipyridine-2′-carboxamide]: 61 nM.

The molecule `CC(C)[C@H](C)n1cnnc1-c1cccc(NC(=O)c2cc(-n3cnc(C4CC4)c3)ccn2)c1` [Example 264, (S)-4-(4-cyclopropyl-1H-imidazol-1-yl)-N-(3-(4-(3-methylbutan-2-yl)-4H-1,2,4-triazol-3-yl)phenyl)picolinamide] registered an IC50 of 23 nM.

As a reminder, the IC50 is the concentration that inhibits the measured activity by half. A low value points to higher potency.

The values above are taken from patent USRE48711E1, “Apoptosis signal-regulating kinase inhibitors” (Gilead Sciences, Inc., priority 2009, dated 2021).
